Reference: patent US20080275058A1, “N-Substituted-1H-Quinoline-2,4-Diones, Preparation Method Thereof, And Pharmaceutical Composition Containing The Same” (KOREA RESEARCH INSTITUTE OF CHEMICAL TECHNOLOGY, priority 2005, published 2008)
Where two headings read alike, the source gives them in different places.

Legend:
5-HT2c = target: T1, 5-HT2c (Homo sapiens, UniProt P28335); assay: Radioligand binding, 5-HT2c ([3H]Mesulergine); conditions: Table 4; [3H]Mesulergine 1 nM; read-out: Binding affinity, IC50 (nM) 5-HT2c
T1 construct: purchased Euroscreen/BioSignal Packard Inc
T1 sequence (P28335 33-458): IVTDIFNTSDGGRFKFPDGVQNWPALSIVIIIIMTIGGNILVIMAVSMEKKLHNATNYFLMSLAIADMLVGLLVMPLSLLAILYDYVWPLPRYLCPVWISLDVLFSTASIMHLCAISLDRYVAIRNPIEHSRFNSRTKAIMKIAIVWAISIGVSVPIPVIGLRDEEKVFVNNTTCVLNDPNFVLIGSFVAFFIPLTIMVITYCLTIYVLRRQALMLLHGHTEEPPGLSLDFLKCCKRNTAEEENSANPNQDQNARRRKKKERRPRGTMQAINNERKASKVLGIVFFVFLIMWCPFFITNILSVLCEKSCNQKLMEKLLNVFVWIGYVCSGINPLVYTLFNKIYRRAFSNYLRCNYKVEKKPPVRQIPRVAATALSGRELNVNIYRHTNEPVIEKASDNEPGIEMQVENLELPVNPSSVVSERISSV

5-HT2a = target: T2, 5-HT2a (Homo sapiens, UniProt P28223); assay: Radioligand binding, 5-HT2a ([3H]Ketanserin); conditions: Table 4; [3H]Ketanserin 1 nM; read-out: Binding affinity, IC50 (nM) 5-HT2a
T2 construct: purchased Euroscreen/BioSignal Packard Inc

mice = assay: Rotarod deficit in mice; type: in vivo, mouse
Method: (§1) The mouse was placed on a 1 inch diameter knurled plastic rod rotating at 6 rpm (Ugo-Basile, Milano, Italy), and the rotarod deficit (%) was obtained by counting the number of animals fallen from the rotating rod within 1 min [Dunham et al., 1957] at 60, 90 and 120 min after the injection of the compound according to the invention(200, 300 or 400 ? ). […] The compounds of the examples were suspended in 3% Tween 80 solution, and were administered (p.o.) 60 min before the testing.

Rotarod deficit in mice = type: in vivo, mouse; conditions: mouse, in vivo, po, unit printed as image, read-out: TD50 (median neurotoxic dose)
Method: as §1

hD2L = target: T3, hD2L (Homo sapiens, UniProt P14416); assay: Radioligand binding, dopamine D2 ([3H]spiperone); conditions: Table 4; [3H]spiperone 1 nM; read-out: Binding affinity, IC50 (nM) D2
T3 construct: purchased BioSignal Packard Inc., Montreal, Canada
Procedure, shortened: (§2)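 IC50 values come from nonlinear fits of three displacement experiments, each using 7-8 test concentrations in duplicate. D2L and D3 membranes were labelled with 1 nM [3H]spiperone, and D4.2 with 0.06 nM [3H]YM-09151-2. All assays used pH 7.4 Tris buffers, with the D3 buffer adding 120 mM NaCl, KCl and CaCl2.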

[1] = target: T4, Human serotonin 5-HT6 receptor (Homo sapiens, UniProt P50406); assay: [3H]LSD binding assay on cloned 5-HT6 receptor membranes
T4 construct: made in house; host or cells: insect Sf21 cells (baculovirus vector BacPAK8)

5-HT7 = target: T5, 5-HT7 (Homo sapiens, UniProt P34969); assay: Radioligand binding, 5-HT7 ([3H]LSD); conditions: Table 4; [3H]LSD 3 nM; read-out: Binding affinity, IC50 (nM) 5-HT7
T5 construct: purchased Euroscreen/BioSignal Packard Inc

hD4.2 receptor = target: T6, hD4.2 receptor (Homo sapiens, UniProt P21917, DEL265-296); assay: Radioligand binding, dopamine D4 ([3H]YM-09151-2); conditions: Table 4; [3H]YM-09151-2 0.06 nM; read-out: Binding affinity, IC50 (nM) D4
T6 construct: purchased BioSignal Packard Inc., Montreal, Canada
T6 sequence (P21917 with tags, fused parts or gaps DEL265-296): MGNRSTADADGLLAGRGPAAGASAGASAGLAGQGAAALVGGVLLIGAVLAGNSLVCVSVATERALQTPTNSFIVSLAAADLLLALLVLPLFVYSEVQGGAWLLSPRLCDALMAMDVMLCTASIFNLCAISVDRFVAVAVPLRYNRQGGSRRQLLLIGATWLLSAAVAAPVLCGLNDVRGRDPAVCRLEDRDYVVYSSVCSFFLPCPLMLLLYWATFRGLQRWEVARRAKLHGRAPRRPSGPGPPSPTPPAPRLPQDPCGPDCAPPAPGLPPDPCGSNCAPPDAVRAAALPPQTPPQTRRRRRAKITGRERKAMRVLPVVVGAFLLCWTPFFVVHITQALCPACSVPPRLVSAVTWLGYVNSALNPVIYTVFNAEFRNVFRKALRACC
Procedure, shortened: as §2

hD3 = target: T7, hD3 (Homo sapiens, UniProt P35462); assay: Radioligand binding, dopamine D3 ([3H]spiperone); conditions: Table 4; [3H]spiperone 1 nM; read-out: Binding affinity, IC50 (nM) D3
T7 construct: purchased BioSignal Packard Inc., Montreal, Canada
Procedure, shortened: as §2

D1 = D1 (Homo sapiens, UniProt P21728); assay: Radioligand binding, dopamine D1; conditions: Table 4; read-out: Binding affinity, IC50 (nM) D1
5-HT1a = target: T8, 5-HT1a (Homo sapiens, UniProt P08908); assay: Radioligand binding, 5-HT1a ([3H]8-OH-DPAT); conditions: Table 4; [3H]8-OH-DPAT 0.5 nM; read-out: Binding affinity, IC50 (nM) 5-HT1a
T8 construct: purchased Euroscreen/BioSignal Packard Inc
T8 sequence (P08908 1-422): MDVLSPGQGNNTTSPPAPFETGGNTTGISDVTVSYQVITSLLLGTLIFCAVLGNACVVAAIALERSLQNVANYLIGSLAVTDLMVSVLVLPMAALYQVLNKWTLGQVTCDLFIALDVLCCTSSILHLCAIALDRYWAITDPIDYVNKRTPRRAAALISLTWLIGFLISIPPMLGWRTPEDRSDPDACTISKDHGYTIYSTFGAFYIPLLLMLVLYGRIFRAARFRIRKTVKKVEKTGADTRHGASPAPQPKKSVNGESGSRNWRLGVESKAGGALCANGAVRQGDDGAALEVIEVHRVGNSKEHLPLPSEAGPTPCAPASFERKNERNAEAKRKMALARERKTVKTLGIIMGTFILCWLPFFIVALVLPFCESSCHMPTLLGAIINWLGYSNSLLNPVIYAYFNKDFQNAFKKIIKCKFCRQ
Procedure, shortened: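 Per manufacturer method: commercial membranes incubated with radioligand and test compound, bound label counted.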

[2] = Table 2, 1.87 nM [3H]LSD, 37 C, 60 min, read-out: IC50 (nM), binding affinity to the 5-HT6 receptor
[3] = Table 4, read-out: Binding affinity, IC50 (nM) 5-HT6

D1, sequence (P21728 whole entry): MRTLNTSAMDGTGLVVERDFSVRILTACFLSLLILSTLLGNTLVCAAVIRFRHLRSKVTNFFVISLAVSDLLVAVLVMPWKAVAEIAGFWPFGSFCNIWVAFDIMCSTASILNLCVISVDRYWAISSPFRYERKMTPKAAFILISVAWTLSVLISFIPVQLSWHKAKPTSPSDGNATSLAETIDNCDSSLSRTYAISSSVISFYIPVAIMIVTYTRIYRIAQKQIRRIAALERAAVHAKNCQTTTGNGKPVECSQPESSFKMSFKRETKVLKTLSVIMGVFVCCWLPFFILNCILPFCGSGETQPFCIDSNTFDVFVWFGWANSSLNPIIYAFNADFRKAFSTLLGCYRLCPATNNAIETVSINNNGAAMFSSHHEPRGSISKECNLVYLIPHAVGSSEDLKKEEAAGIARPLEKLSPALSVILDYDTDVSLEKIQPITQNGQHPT
T7 sequence (P35462 whole entry): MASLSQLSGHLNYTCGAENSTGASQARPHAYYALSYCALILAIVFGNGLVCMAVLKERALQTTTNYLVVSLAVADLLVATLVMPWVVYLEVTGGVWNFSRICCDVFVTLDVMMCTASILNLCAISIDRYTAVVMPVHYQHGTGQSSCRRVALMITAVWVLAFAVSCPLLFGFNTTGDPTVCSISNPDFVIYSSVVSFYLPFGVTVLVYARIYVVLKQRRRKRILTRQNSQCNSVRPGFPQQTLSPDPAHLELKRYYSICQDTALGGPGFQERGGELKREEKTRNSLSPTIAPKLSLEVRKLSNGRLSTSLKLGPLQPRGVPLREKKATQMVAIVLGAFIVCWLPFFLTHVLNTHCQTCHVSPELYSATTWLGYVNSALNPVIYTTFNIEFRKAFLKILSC
T3 sequence (P14416 whole entry): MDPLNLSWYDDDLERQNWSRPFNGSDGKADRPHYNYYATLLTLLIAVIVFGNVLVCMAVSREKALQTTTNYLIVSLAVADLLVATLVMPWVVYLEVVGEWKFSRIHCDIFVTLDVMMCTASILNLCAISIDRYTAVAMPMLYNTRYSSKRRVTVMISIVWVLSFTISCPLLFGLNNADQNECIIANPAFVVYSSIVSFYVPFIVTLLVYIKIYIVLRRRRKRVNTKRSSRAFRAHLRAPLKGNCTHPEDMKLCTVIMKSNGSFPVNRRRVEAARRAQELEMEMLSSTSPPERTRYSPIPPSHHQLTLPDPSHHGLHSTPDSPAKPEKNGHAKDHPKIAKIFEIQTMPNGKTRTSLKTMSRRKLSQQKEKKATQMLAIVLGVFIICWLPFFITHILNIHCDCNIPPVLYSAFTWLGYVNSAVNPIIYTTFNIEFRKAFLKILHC
T2 sequence (P28223 whole entry): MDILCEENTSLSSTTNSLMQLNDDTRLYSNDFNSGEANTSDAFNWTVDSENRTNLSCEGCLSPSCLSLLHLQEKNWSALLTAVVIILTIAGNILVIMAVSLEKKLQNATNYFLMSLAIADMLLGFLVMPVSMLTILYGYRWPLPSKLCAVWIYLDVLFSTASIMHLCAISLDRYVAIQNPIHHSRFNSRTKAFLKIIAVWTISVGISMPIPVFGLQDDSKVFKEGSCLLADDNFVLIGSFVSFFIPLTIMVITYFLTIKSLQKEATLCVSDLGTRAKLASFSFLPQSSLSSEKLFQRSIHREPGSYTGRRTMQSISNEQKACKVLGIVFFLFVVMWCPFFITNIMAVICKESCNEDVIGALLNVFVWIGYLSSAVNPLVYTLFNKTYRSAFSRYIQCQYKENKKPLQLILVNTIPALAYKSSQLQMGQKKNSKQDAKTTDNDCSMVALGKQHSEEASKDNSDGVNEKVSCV
T4 sequence (P50406 whole entry): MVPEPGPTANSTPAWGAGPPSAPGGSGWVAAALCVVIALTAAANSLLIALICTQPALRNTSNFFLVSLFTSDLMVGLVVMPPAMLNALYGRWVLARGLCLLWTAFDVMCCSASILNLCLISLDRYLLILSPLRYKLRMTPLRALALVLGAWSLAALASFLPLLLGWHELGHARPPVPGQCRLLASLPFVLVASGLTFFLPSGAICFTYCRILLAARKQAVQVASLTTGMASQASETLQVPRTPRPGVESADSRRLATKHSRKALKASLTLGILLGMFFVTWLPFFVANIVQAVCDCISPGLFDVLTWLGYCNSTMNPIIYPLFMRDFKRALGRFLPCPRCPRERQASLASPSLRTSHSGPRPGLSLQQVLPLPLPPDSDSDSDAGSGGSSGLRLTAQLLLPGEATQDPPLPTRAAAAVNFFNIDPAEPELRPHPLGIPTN
T5 sequence (P34969 whole entry): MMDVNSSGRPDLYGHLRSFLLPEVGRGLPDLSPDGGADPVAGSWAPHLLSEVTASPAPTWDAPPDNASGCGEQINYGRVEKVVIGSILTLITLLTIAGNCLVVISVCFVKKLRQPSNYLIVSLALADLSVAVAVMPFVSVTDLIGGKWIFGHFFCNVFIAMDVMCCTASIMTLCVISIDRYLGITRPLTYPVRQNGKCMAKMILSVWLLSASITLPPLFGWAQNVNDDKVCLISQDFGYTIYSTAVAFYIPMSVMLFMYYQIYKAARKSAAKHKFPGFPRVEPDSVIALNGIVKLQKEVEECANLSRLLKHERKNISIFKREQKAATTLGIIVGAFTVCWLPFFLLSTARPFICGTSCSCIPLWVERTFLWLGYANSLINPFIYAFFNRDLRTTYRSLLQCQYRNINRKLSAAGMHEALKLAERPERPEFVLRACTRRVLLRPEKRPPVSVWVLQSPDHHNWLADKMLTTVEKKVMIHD

Row | SMILES | IC50 (5-HT2c) [nM] | IC50 (5-HT2a) [nM] | Rotarod deficit (%) (mice; 200 p.o. (dose unit not given)) | Rotarod deficit (%) (mice; 300 p.o. (dose unit not given)) | Rotarod deficit (%) (mice; 400 p.o. (dose unit not given)) | TD50 at 120 min (Rotarod deficit in mice) [mg/kg] | IC50 (hD2L) [nM] | IC50 [1, 2] [nM] | IC50 [1, 3] [nM] | IC50 (5-HT7) [nM] | IC50 (hD4.2 receptor) [nM] | IC50 (hD3) [nM] | melting point [°C] | IC50 (D1) [nM] | IC50 (5-HT1a) [nM] | binding affinity at 5-HT6 receptor labeled by [3H]LSD, in words ([1]; comment on Table 2)
1 | CC1(c2ccc(O)cc2)C(=O)c2c(N3CCNCC3)cc(Cl)cc2N(Cc2cccc([N+](=O)[O-])c2)C1=O (stereo not shown) [Example 24, 7-Chloro-3-(4-hydroxy-phenyl)-3-methyl-1-(3-nitro-benzyl)-5-piperazin-1-yl-1H-quinoline-2,4-dione] | 6090 | 5040 | 0 | 0 | 0 | > 400 | 3000 | 14.5 | 14.5 | > 10000 | > 10000 | 2330 | 252 to 253 | 4930 | > 10000 | 
2 | COc1ccc(C2(C)C(=O)c3c(N4CCNCC4)cc(Cl)cc3N(Cc3cccc(OC)c3)C2=O)cc1 (stereo not shown) [Example 27, 7-Chloro-1-(3-methoxy-benzyl)-3-(4-methoxy-phenyl)-3-methyl-5-piperazin-1-yl-1H-quinoline-2,4-dione] | > 1000 | > 1000 | 0 | 0 | 0 | > 400 | > 1000 | 2.3 | 2.3 | > 1000 | > 10000 | 2640 | 110 to 112 | > 1000 | > 10000 | 
3 | CN1CCN(c2cc(Cl)cc3c2C(=O)C(C)(c2ccc(OCc4ccccc4)c(Br)c2)C(=O)N3Cc2ccccc2)CC1 (stereo not shown) [Example 12, 1-Benzyl-3-(4-benzyloxy-3-bromo-phenyl)-7-chloro-3-methyl-5-(4-methyl-piperazin-1-yl)-1H-quinoline-2,4-dione] | 1290 | 95 | 0 | 0 | 0 | > 400 | 6450 | 9.2 | 9.2 | 136 | > 10000 | 153 | 95 to 97 | 1240 | 2520 | 
4 | CC1(c2ccccc2)C(=O)c2c(N3CCNCC3)cc(Cl)cc2N(Cc2ccccc2)C1=O (stereo not shown) [Example 22, 1-Benzyl-7-chloro-3-methyl-3-phenyl-5-piperazin-1-yl-1H-quinoline-2,4-dione] | 1830 | 2900 | 0 | 0 | 0 | > 400 | 2450 | 2.7 | 2.3 | 5070 | > 10000 | 1810 |  | 5140 | 3910 | 
5 | COc1ccc([C@@]2(C)C(=O)c3c(N4CCNCC4)cc(Cl)cc3N(Cc3ccccc3)C2=O)cc1 [Example 13-1, (S)-1-Benzyl-7-chloro-3-(4-methoxy-phenyl)-3-methyl-5-piperazin-1-yl-1H-quinoline-2,4-dione] | 7740 | 2510 | 0 | 0 | 0 | > 400 | > 10000 | 1.4 | 1.4 | 5850 | > 10000 | 8930 |  | 6150 | 5430 | significant affinities
6 | COc1ccc([C@]2(C)C(=O)c3c(N4CCNCC4)cc(Cl)cc3N(Cc3ccccc3)C2=O)cc1 [Example 13-2, (R)-1-Benzyl-7-chloro-3-(4-methoxy-phenyl)-3-methyl-5-piperazin-1-yl-1H-quinoline-2,4-dione] | 9740 | 2840 | 0 | 0 | 0 | > 400 | > 10000 | 9 | 9 | 9520 | > 10000 | 2580 |  | 5210 | 3280 | 
